In patent US6746663B2, “Porphyrin compounds” (Photochemical Co., Ltd., priority 1999, dated 2004):
Counter-ions that a name gives are not always drawn.

Key:
[1] = Photosensitizing oxidation reaction using Dansyl methionine; conditions: for Degree of Photo Reaction (reaction end time): 0.1 μM photosensitizer, 10 μM Dansyl methionine in chloroform, halogen lamp irradiation, time until Dansyl methionine disappeared on TLC, smaller = stronger
Protocol: (§1) Albumin test is a test method for evaluating the affinity to cancerous tissues, in which a chlorin derivative is examined on the change in ultraviolet (UV) absorption spectrum in a mixture form with albumine, and dancyl methionine test is also a convenient test method for evaluating the strength of the photoreactivity by thin layer chromatography (TLC) or high performance liquid chromatography (HPLC) (see Japanese Patent Application Laid-open No. 5-97857).
To 1 ml of chloroform, 10 μM of Dansyl methionine, a substrate, was added, and then 0.1 μM of the photosensitizer of the present invention [sodium salt of NOEt-P-Asp(I)] was further added. Laser irradiation was conducted using Cold Spot PICL-SX (Nippon P.I. Co., Ltd.) which is halogen lamp, has 150 W wave length and 80,00 Lux, under stirring. The reaction solution was spotted at every minute on TLC plate (Kieselgel 60F254), and developed with chloroform methanol (3:2), then Dansyl methionine and its oxide (Dansylmethionine sulfoxide) were confirmed using UV lamp (254 nm). The time that Dansylmethionine disappeared completely on TLC plate was stated as the end of the reaction time, and photo oxidation reaction of photosensitizer was compared.
Photofrin II (Trade Mark) was used as a control of photosensitizer of present invention.

[2] = tested on: tumor tissues of colon cancer Colon 26; experiment: Evaluation on tissue accumulability (cancer/organ concentration by surface fluorescence); format: in vivo; conditions: 10 mg/kg intravenous, 3H/He mice bearing Colon 26, 1 to 24 hours after administration, FIG. 2
Protocol: In the graph, the curve No.1 represents the result of cancer/brain, the curve No.2 represents the result of cancer/liver, the curve No.3 represents the result of cancer/lung, the curve No.4 represents cancer/muscle, the curve No.5 represents cancer/kidney, and the curve No.6 represents cancer/plasma.
3H/He mice (5 per group) implanted with tumor tissues of colon cancer Colon 26 for 14 to 21 days, were given an intravenous injection of sodium salt of each of NOEt-P-Asp(I) (10 mg/kg for each mouse) which had been diluted with a distilled water for injection. The blood samples were collected and the organs bearing the tumor tissue were extirpated after the injection, irradiated with N2-pulsed laser (N2, wavelength: 337 nm, 2 ns, 400-1,000 nm), and the excited fluorescent spectrum was measured. The wavelength in the range of 600 to 900 nm was examined based on the peak wavelength of NADH at 470 nm (determination of the distribution of the test compound in the organ by the surface fluorescence method using N2-pulsed laser spectrophotometry). That is, the distributed concentration of sodium salt of NOEt-P-Asp(I) in cancer/organ (or plasma) ratio was determined by calculating the peak wavelength at 670 nm when the peak wavelength at 470 nm was considered as the basic value, 1.

[3] = biological target: albumin (Homo sapiens, UniProt P02768); experiment: Albumin test (change in UV absorption spectrum in mixture with albumin); format: binding
Chain of albumin (P02768 25-609, species assumed): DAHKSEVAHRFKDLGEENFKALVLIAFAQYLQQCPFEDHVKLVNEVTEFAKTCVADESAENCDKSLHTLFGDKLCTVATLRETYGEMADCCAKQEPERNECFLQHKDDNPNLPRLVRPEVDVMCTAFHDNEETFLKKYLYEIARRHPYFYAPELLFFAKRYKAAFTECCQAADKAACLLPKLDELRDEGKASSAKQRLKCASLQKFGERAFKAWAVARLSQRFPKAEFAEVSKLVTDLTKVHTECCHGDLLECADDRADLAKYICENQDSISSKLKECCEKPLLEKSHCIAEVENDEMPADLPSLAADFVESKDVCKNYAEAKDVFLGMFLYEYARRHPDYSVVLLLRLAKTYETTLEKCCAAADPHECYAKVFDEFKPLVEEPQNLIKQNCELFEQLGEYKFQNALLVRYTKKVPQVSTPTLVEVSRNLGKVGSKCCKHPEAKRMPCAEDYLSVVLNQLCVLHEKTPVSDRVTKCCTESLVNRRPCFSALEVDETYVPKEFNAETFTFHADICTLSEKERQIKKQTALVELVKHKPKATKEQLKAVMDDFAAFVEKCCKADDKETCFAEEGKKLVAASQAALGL
Excerpt: as §1

Molecule | Degree of Photo Reaction (reaction end time) [1] | accumulability to cancerous tissues (cancer/organ or plasma concentration ratio) [2] | photosensitivity (strength of photoreactivity) ([1]; dancyl methionine test, result in words) | transferability to cancerous tissues (affinity to cancerous tissues) [3]
13,17-bis[(1,2-dicarboxyethyl)carbamoylethyl]-8-ethenyl-2-hydroxy-3-etoxyiminoethylidene-2,17,12,18-tetramethyl-porphyrin [NOEt-P-Asp(II) Na salt] | 4 min |  |  | 
C=Cc1c(C)c2cc3nc(cc4[nH]c(cc5nc(cc1[nH]2)C(C)(O)C5=CC=NOCC)c(C)c4CCC(=O)NC(CC(=O)O)C(=O)O)C(CCC(=O)NC(CC(=O)O)C(=O)O)=C3C (centres unmarked) [NOEt-P-Asp(I) Na salt, 13,17-bis[(1,2-dicarboxylethyl)carbamoylethyl]-3-ethenyl-7-hydroxy-8-ethoxyiminoethylidene-2,7,12,18-tetramethyl-porphyrin] | 4 min | much higher accumulability to cancerous tissues |  | 
C=Cc1c(C)c2cc3nc(cc4[nH]c(cc5nc(cc1[nH]2)C(C)(O)C5=CC=NOCC)c(C)c4CCC(=O)NC(CC(=O)O)C(=O)O)C(CCC(=O)NC(CC(=O)O)C(=O)O)=C3C (centres unmarked) [NOEt-P-Asp(I), 13,17-bis[(1,2-dicarboxylethyl)carbamoylethyl]-3-ethenyl-7-hydroxy-8-ethoxyiminoethylidene-2,7,12,18-tetramethyl-porphyrin] |  |  | strong photosensitivity | excellent transferability to cancerous tissues
